Data from article PMC11431963 (International Journal of Molecular Sciences, 2024).
Blank lines part the entries; values can stand above or below the molecule they belong to.

Key:
in vivo = details: female, FVB/N, mouse, ip, 10 mg/kg, 10 mg/kg intraperitoneal
Text: (§1) Animals were handled according to institutional and ARRIVE guidelines complying with European legislation (2010/63/EU). Experimental procedures were approved by the Animal Care and Use Committee of the University of León and the Junta de Castilla y León (ULE_010_2021). Abcg2^-/- and wild-type mice were used, all of >99% FVB/N genetic background, generated and kindly supplied by A. H. Schinkel (The Netherlands Cancer Institute).
(§2) All animals, which were aged from 9 to 14 weeks and weighed 30 g, were kept in a temperature-controlled environment with a cycle of 12 h of light and 12 h of darkness and received a standard diet and water ad libitum.
Pups of approximately 10 days old were separated from their mothers four hours before the onset of the experiment. […] Milk secretion was stimulated by oxytocin (200 μL of a 1 UI/mL solution), subcutaneously injected to lactating mice 10 min before sample collection. […] Animals were euthanized by cervical dislocation at the end of the experiment. Four to five animals were used for each group.
Heparinized blood samples were centrifuged immediately at 3000× g for 15 min to obtain plasma. Milk and plasma were also stored at −20 °C until HPLC analysis.
(§3) Tissue samples were homogenized with a mixture of 50% water:50% methanol with 0.5% HCl; 1 mL of solution per 0.1 g of organ was used. To each 100 µL of plasma, milk or tissue homogenate, 10 µL of an albendazole-2-aminosulfone solution (100 µg/mL) was added as an internal standard and 400 µL of acetonitrile was also added in order to precipitate proteins. After 10 min of being horizontally vortexed, samples were centrifuged at 10,500× g for 10 min at 4 °C. Supernatants were evaporated to dryness at 40 °C under a stream of nitrogen. Samples were reconstituted in 100 µL of cold methanol and injected into the HPLC system. However, samples for in vitro assays were directly injected into the HPLC system.
(§4) The chromatographic system used for sample analysis consisted of a Waters 2695 separation module and a Waters 2998 UV photodiode array detector. Separation of samples was performed on an analytical reversed-phase column (5 µm particle size, 250 × 4.6 mm, EVO C18 100 Å, Phenomenex®, Torrance, CA, USA). The mobile phase used for in vitro samples was trifluoroacetic acid 0.04%:methanol (40:60), whereas for in vivo samples, it was ammonium acetate 25 mM (pH 5):acetonitrile (85:15). In both cases, the flow rate was set to 1.00 mL/min and UV absorbance was measured at 260.3 nm.

[1] = tested on: non-small-cell lung cancer (NSCLC) cell lines; details: p53-dependent mechanisms; cited from earlier work
MCF-7 = details: breast cancer cell line MCF-7; cited from earlier work
Colo-205 = details: colorectal cancer cell line Colo-205; cited from earlier work
[2] = Tissue distribution in wild-type and Abcg2-/- male mice; details: 10 mg/kg intraperitoneal; for concentration at 60 min: male, FVB/N, mouse, in vivo, ip, 10 mg/kg
Text: as §1, §2
(§5) Blood samples were collected at different time points (5, 10, 20, 30, 45, 60, 90 and 120 min) by cardiac puncture under anesthesia with isoflurane. Organs were harvested at the 60 min time point. All animals were euthanized by cervical dislocation at the end of the experimental procedure. Heparinized blood samples were centrifuged immediately at 3000× g for 15 min. Plasma and organs were stored at −20 °C until HPLC analysis. Three to ten animals were used for each time point.
as §3, §4

[3] = Plasma levels in wild-type and Abcg2-/- male mice after intraperitoneal administration; details: for concentration at 45 min / concentration at 60 min: Plasma concentration
Text: as §1, §2, §5, §3, §4

human ABCG2 = target: T1, human ABCG2 (Homo sapiens, UniProt Q9UNQ0); assay: Transepithelial transport assay in MDCK-II cells transduced with human ABCG2; format: in vitro ADME
T1 sequence (Q9UNQ0 1-655): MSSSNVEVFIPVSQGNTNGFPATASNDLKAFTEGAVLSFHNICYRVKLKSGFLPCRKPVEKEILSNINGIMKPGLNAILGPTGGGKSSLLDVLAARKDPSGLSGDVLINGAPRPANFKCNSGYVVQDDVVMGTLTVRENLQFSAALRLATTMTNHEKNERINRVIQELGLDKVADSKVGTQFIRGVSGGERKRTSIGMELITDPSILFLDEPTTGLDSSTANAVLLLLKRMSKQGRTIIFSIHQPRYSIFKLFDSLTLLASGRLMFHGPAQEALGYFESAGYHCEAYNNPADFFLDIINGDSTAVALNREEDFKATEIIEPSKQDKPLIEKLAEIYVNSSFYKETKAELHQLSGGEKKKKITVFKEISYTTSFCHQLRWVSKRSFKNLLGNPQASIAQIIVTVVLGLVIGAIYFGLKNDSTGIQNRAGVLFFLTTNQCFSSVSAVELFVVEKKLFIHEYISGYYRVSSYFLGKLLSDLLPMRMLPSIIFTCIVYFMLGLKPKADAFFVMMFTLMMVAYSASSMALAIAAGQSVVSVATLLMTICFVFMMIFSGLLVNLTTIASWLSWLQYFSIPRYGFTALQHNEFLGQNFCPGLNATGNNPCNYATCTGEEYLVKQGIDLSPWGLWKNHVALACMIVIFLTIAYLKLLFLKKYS
Procedure: (§6) For in vitro assays, the polarized cell line Madin-Darby canine kidney (MDCK-II) and their murine Abcg2 and human ABCG2 transduced subclones, which were previously generated and provided by A.H. Schinkel from the Netherlands Cancer Institute (Amsterdam, The Netherlands), were used.
(§7) Transcellular transport assays were performed as previously described, with minor modifications (Figure S1). Transduced MDCK-II cells were seeded as a monolayer on microporous membrane filters (3.0 μm pore size, 24 mm diameter; Transwell® 3414; Costar, Corning, NY, USA) at a density of 1.0 x 10^6 cells/well. Cells were grown for three days with daily medium replacement.
(§8) During the experiment, quality controls were performed in terms of monolayer tightness at the beginning and end of the assay using Millicell®ERS (Millipore, Burlington, MA, USA), and monolayer confluence was tested at the end of the experiment by means of Lucifer Yellow permeability. Transport proficiency was simultaneously checked by testing a typical ABCG2 substrate (danofloxacin 10 μM) (Table S1).
(§9) (to verify that the potential transport was specifically due to ABCG2). […] This volume was replaced with fresh Opti-MEM medium. Finally, at t = 4 h 600 µL aliquots were taken from the apical and basal compartments of each well. All samples were stored at −20 °C until being analyzed by high-performance liquid chromatography (HPLC), as described below.
(§10) The relative efflux transport ratio was calculated as the basal to apical directed transport percentage divided by the apical to basal directed transport percentage at 4 h.
as §3
as §4, with “The mobile phase used for in vitro samples was trifluoroacetic acid 0.04%:methanol (40:60), whereas for in vivo samples, it was ammonium acetate 25 mM (pH 5):acetonitrile (85:15).” left out

murine Abcg2 = target: T2, murine Abcg2 (Mus musculus, UniProt Q7TMS5); assay: Transepithelial transport assay in MDCK-II cells transduced with murine Abcg2; format: in vitro ADME
T2 sequence (Q7TMS5 1-657): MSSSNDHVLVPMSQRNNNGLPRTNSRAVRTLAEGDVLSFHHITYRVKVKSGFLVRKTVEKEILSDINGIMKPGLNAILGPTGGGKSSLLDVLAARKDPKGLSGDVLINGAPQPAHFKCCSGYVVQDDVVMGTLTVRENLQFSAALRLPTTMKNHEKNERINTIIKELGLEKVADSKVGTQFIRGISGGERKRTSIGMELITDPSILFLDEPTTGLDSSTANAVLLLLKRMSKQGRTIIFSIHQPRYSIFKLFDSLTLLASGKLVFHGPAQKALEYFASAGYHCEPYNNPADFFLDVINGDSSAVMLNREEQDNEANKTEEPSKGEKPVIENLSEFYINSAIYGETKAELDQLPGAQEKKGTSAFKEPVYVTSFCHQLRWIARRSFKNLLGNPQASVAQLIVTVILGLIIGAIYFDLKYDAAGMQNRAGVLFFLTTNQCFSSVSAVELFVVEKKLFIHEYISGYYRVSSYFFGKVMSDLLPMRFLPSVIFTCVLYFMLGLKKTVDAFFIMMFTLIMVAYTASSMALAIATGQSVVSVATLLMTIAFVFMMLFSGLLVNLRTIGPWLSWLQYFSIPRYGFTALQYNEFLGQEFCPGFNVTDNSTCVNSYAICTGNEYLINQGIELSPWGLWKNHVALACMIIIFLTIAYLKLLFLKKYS
Procedure: as §6, §7, §8, §9, §10, §3, §4

HepG2 = details: liver cancer cell line HepG2; cited from earlier work
[4] = Transepithelial transport assay in parental MDCK-II cells; format: in vitro ADME, canine; details: dog, danofloxacin 10 µM, positive control, read-out: Transport ratio (BA/AB)
Procedure: as §6, §7, §8, §9
(§11) Lumichrome appearance in the opposite compartment is presented as the fraction of total compound added at the beginning of the experiment and expressed as percentage. The relative efflux transport ratio was calculated as the basal to apical directed transport percentage divided by the apical to basal directed transport percentage at 4 h.

parental MDCK-II cells = assay: as above; format: in vitro ADME, canine; details: danofloxacin 10 µM, positive control, 4 h
Procedure: as §6, §7, §8, §9, §11

ABCG2 (BCRP) [5] = target: T3, ABCG2 (BCRP) (Homo sapiens, UniProt Q9UNQ0); assay: Transepithelial transport assay in MDCK-II cells transduced with human ABCG2; format: in vitro ADME; details: human; danofloxacin 10 µM, positive control, 4 h, MDCK-II hABCG2; read-out: Transport ratio (BA/AB)
T3 sequence (Q9UNQ0 1-655): T1 sequence (Q9UNQ0 1-655)
Procedure: as §6, §7, §8, §9, §10, §3
as §4, with “The mobile phase used for in vitro samples was trifluoroacetic acid 0.04%:methanol (40:60), whereas for in vivo samples, it was ammonium acetate 25 mM (pH 5):acetonitrile (85:15).” left out

Abcg2 (BCRP) [6] = target: T4, Abcg2 (BCRP) (Mus musculus, UniProt Q7TMS5); assay: Transepithelial transport assay in MDCK-II cells transduced with murine Abcg2; format: in vitro ADME; details: mouse; danofloxacin 10 µM, positive control, 4 h, MDCK-II mABCG2; read-out: Transport ratio (BA/AB)
T4 sequence (Q7TMS5 1-657): T2 sequence (Q7TMS5 1-657)
Procedure: as §6, §7, §8, §9, §10, §3, §4

[7] = male, FVB/N, mouse, in vivo, ip, 10 mg/kg, Abcg2-/- male mice, 10 mg/kg intraperitoneal
[8] = male, FVB/N, mouse, in vivo, ip, 10 mg/kg, wild-type male mice, 10 mg/kg intraperitoneal
[9] = danofloxacin 10 µM, positive control, 4 h, MDCK-II hABCG2
[10] = danofloxacin 10 µM, positive control, 4 h, MDCK-II mABCG2

concentration at 30 min (in vivo; Milk concentration, Abcg2-/- lactating female mice): 430 ± 180 ng/mL
concentration at 30 min (in vivo; Milk concentration, wild-type lactating female mice): 1750 ± 730 ng/mL
concentration at 30 min (in vivo; Plasma concentration, Abcg2-/- lactating female mice): 280 ± 100 ng/mL
concentration at 30 min (in vivo; Plasma concentration, wild-type lactating female mice): 310 ± 60 ng/mL
concentration at 60 min ([2]; Concentration in liver, Abcg2-/- male mice): 340 ± 120 ng/mL
concentration at 60 min ([2]; Concentration in liver, wild-type male mice): 150 ± 70 ng/mL
concentration at 60 min ([2]; Concentration in small intestine content, Abcg2-/- male mice): 310 ± 110 ng/mL
concentration at 60 min ([2]; Concentration in small intestine content, wild-type male mice): 850 ± 350 ng/mL
concentration at 60 min ([2]; Concentration in testis, Abcg2-/- male mice): 180 ± 50 ng/mL
concentration at 60 min ([2]; Concentration in testis, wild-type male mice): 80 ± 60 ng/mL
Plasma AUC 20–120 min ([3]; Abcg2-/- male mice, 10 mg/kg intraperitoneal): 1290 ± 110 ng·h/mL
AUC ([3]; male, FVB/N, mouse, in vivo, ip, 10 mg/kg): 720 ± 50 ng·h/mL
concentration at 45 min [3, 7]: 1020 ± 260 ng/mL
concentration at 60 min [3, 7]: 850 ± 500 ng/mL
concentration at 45 min [3, 8]: 390 ± 240 ng/mL
concentration at 60 min [3, 8]: 400 ± 130 ng/mL
In vitro transport by the transporter (substrate) (human ABCG2; lumichrome 10 µM, human variant): efficiently transported
In vitro transport by the transporter (substrate) (murine Abcg2; lumichrome 10 µM, murine variant): efficiently transported
SMILES: Cc1cc2nc3[nH]c(=O)[nH]c(=O)c3nc2cc1C [lumichrome]
Concentration suppressing growth and inducing apoptosis [1]: above 25 µM
Concentration showing significant cytotoxic activity (MCF-7): higher than 40 µM
Concentration showing significant cytotoxic activity (Colo-205): higher than 40 µM
Tissue distribution (liver, kidney, small intestine, small intestine content, spleen, brain, testis) ([2]; male mice, 60 min): widely distributed in all organs analyzed
Concentration showing significant cytotoxic activity (HepG2): higher than 40 µM

efflux ratio at 4 h, 10 µM [4]: 0.96 ± 0.08
AB transport (%) (parental MDCK-II cells): 22.84 ± 2.99%
BA transport (%) (parental MDCK-II cells): 21.82 ± 1.79%
AB transport (%) (human ABCG2; [9]): 17.22 ± 2.98%
BA transport (%) (human ABCG2; [9]): 33.94 ± 4.07%
efflux ratio at 4 h, 10 µM (ABCG2 (BCRP) [5]): 2.04 ± 0.57
AB transport (%) (murine Abcg2; [10]): 5.30 ± 1.97%
BA transport (%) (murine Abcg2; [10]): 45.77 ± 6.49%
efflux ratio at 4 h, 10 µM (Abcg2 (BCRP) [6]): 9.24 ± 2.59
SMILES: CN1C[C@@H]2C[C@H]1CN2c1cc2c(cc1F)c(=O)c(C(=O)O)cn2C1CC1 [danofloxacin]

SMILES: COc1ccc2c3c([nH]c2c1)[C@H](CC(C)C)N1C(=O)[C@H](CCC(=O)OC(C)(C)C)NC(=O)[C@@H]1C3 [Ko143]
Inhibition of ABCG2-mediated transport of lumichrome (murine Abcg2; Ko143 1 µM, lumichrome 10 µM, murine Abcg2 subclone): completely inhibited
